Our source for the EC50 and Ki values is patent US20240398781A1, “SPIROCYCLIC CYCLIC MODULATORS OF CHOLESTEROL BIOSYNTHESIS AND THEIR USE FOR PROMOTING REMYELINATION” (GENENTECH, INC., priority 2021, published 2024).

For orientation: EC50 means the concentration that produces a half-maximal response. In general, Ki refers to the dissociation constant of the complex between target and ligand, obtained from inhibition or displacement. Low readings indicate a stronger hold on the target, high ones a looser hold on the target.

Experiment [1] relates to EpiSC-derived OPCs. Description: In vitro phenotypic screening of OPCs (MBP staining, high-content imaging). As to conditions: Mus musculus, 72 h, percentage of MBP+ oligodendrocytes, 3 days, 0.5 nM to 1000 nM; read-out: OPC EC50. The class given is cell-based, mouse. Here is the method:
To assess effects of treatments on OPCs, all treatments were assayed in two or more independent platings of epiblast stem cell-derived OPCs (EpiSC). EpiSC-derived OPCs were obtained using in vitro differentiation protocols and culture conditions described previously (Najm et al, 2011, Nature Methods). OPCs were expanded and frozen down in aliquots. OPCs were thawed into growth conditions for at least one passage before use in further assays.
EpiSC-derived OPCs were grown and expanded in poly-L-ornithine (PO) and laminin-coated flasks in N2B27 media (DMEM/F12 (Gibco), N2-MAX (R&D Systems), B-27 (ThermoFisher), and GlutaMax (Gibco)) supplemented with FGF2 ([…], R&D systems, 233-FB-025) and PDGF-AA ([…], R&D systems, 233-AA-050) before harvesting for experiments. The cells were seeded onto poly-L-ornithine or poly-D-lysine coated CellCarrier Ultra plates (PerkinElmer) coated with laminin (Sigma, L2020) at a density of 150,000/cm^2 in N2B27 media without growth factors. For dose-response testing, a 1000× compound stock in dimethyl sulphoxide (DMSO) was added to assay plates, resulting in 8-point dose curves with final concentrations between 1000 nM and 0.5 nM. Positive controls and DMSO vehicle controls were included in each assay plate. Cells were incubated under standard conditions (37° C., 5% CO2) for 3 days and fixed with 4% paraformaldehyde (PFA) in phosphate buffered saline (PBS) for 20 min. Fixed plates were washed with PBS, permeabilized with 0.1% Triton X-100, and blocked with 10% donkey serum (v/v) in PBS for 40 min. Then, cells were labelled with MBP antibodies (Abcam, ab7349; 1:200) for 2 h at room temperature, washed with PBS, and stained with Alexa Fluor conjugated secondary antibodies (1:500) for 45 min. Nuclei were visualized by DAPI staining (Sigma; 1 μg/ml), followed by further PBS washes.
Cells and cell culture plates were imaged on the Operetta High Content Imaging and Analysis system (PerkinElmer). Analysis (PerkinElmer Harmony and Columbus software) began by identifying intact nuclei stained by DAPI. The peri-nuclear region of each cell was then cross-referenced with the mature myelin protein (MBP) stain to identify oligodendrocyte nuclei, and from this the percentage of oligodendrocytes was calculated. EC50 values were calculated using The Levenberg-Marquardt algorithm to fit a Hill equation to dose-response data (0.5 nM to 1000 nM).

The test system of experiment [2] is EBP (zymostenol accumulation in EpiSC-derived OPCs). Description: GC/MS-based sterol profiling, zymostenol accumulation in OPCs. As to conditions: Mus musculus, 24 h, EpiSC-derived OPCs, 24 hr treatment, 8 doses from 0.15 nM to 333 nM; read-out: Zymostenol GCMS EC50. The format is cell-based, mouse. The procedure, abridged: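 EpiSC-derived OPCs (100,000/well) were treated 24 h in N2B27 without growth factors. Sterols were TMS-derivatized and analysed by GC/MS full-scan EI, quantified against cholesterol-d7. Zymostenol was normalized to the level after 24 h with 100 nM positive control reference.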

Experiment [3] deals with human emopamil binding protein and human 7-dehydrocholesterol reductase co-expressing cells (hEBP-DHCR7 membrane) (Homo sapiens (Human), UniProt Q15125). Description: Radioligand filter binding assay on hEBP-DHCR7 membrane. As to conditions: [3H]-(S)-6-(2-Methyl-3-(6-(trifluoromethyl)pyridin-3-yl)propyl)-2-thia-6-azaspiro[3.4]octane 2,2-dioxide radioligand, HEK293 membrane co-expressing hEBP and hDHCR7. The procedure, abridged: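 HEK293 cells transiently co-expressing human EBP and DHCR7 supplied whole-cell membranes (10 μg/well), incubated 3 h at 22 °C with [3H]-labelled spiro-octane dioxide ligand (added at 25 nM) and compound (0.06-5000 nM final, 8 doses, n=2). Bound ligand was collected on PEI-treated GF/B filters and counted by scintillation. IC50 was Hill-fitted from % inhibition and reported as Ki.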
Sequence of human emopamil binding protein and human 7-dehydrocholesterol reductase co-expressing cells (hEBP-DHCR7 membrane) (Q15125 whole entry): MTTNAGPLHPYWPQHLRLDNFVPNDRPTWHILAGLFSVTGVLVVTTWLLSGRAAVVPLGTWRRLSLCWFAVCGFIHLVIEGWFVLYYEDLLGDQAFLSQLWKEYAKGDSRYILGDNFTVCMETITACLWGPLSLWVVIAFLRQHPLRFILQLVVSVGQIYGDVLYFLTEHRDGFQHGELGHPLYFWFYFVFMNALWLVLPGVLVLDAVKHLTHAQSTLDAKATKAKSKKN

Each structure is given as a SMILES string.

In the case of `CC(C)n1nc(-c2ccc(C(F)(F)F)cc2)nc1[C@H]1CCC(N2CCC3(CC2)CS(=O)(=O)C3)C1` (stereo in doubt) [Compound 58B, 7-((1S,3S)-3-(1-isopropyl-3-(4-(trifluoromethyl)phenyl)-1H-1,2,4-triazol-5-yl)cyclopentyl)-2-thia-7-azaspiro[3.5]nonane 2,2-dioxide], the EC50 was found to be 3.4 nM in experiment [1] and 2.3 nM in experiment [2]. The compound also had a Ki in experiment [3] of 21 nM.

Take `O=S1(=O)CC2(CCN([C@H]3CC[C@@H](c4ccc(C(F)(F)F)nc4)CC3)CC2)C1` [81B*, 7-((1s,4s)-4-(6-(Trifluoromethyl)pyridin-3-yl)cyclohexyl)-2-thia-7-azaspiro[3.5]nonane 2,2-dioxide]: the EC50 was 270 nM in experiment [1] and 42 nM in experiment [2]. Besides, the Ki in experiment [3] was 470 nM.

In the case of `O=S1(=O)CCC2(CCN([C@H]3CC[C@H](c4ccc(C(F)(F)F)cn4)CC3)C2)CC1` [84B*, 2-((1s,4s)-4-(5-(Trifluoromethyl)pyridin-2-yl)cyclohexyl)-8-thia-2-azaspiro[4.5]decane 8,8-dioxide], the EC50 stood at 130 nM in experiment [1] and 27 nM in experiment [2]. In experiment [3], this compound yielded an inhibitory constant (Ki) of 69 nM.

Turning to `O=S1(=O)CC2(CCN([C@H]3CC[C@@H](c4ccc(C(F)(F)F)cc4)C3)C2)C1` [Compound 1A, 6-((1S,3R)-3-(4-(trifluoromethyl)phenyl)cyclopentyl)-2-thia-6-azaspiro[3.4]octane 2,2-dioxide], the EC50 in experiment [1] is 17 nM; in experiment [2], 4.9 nM. The compound also yielded an inhibitory constant (Ki) in experiment [3] of 14.8 nM.

In the case of `O=S1(=O)CC2(CCN([C@@H]3CC[C@H](c4ccc(C(F)(F)F)cc4)C3)C2)C1` [Compound 1C, 6-((1R,3S)-3-(4-(trifluoromethyl)phenyl)cyclopentyl)-2-thia-6-azaspiro[3.4]octane 2,2-dioxide], the EC50 in experiment [1] worked out at 1.8 nM; in experiment [2] it was 1.4 nM. In experiment [3], the inhibitory constant (Ki) stood at 11 nM.

Take `O=S1(=O)CC2(CCN([C@H]3CC[C@H](c4ccc(C(F)(F)F)cc4)C3)C2)C1` [Compound 1D, 6-((1S,3S)-3-(4-(trifluoromethyl)phenyl)cyclopentyl)-2-thia-6-azaspiro[3.4]octane 2,2-dioxide]: the EC50 in experiment [1] worked out at 18 nM; in experiment [2] it was 4.9 nM. Further, the inhibitory constant (Ki) in experiment [3] came out at 15 nM.

`O=S1(=O)CC2(CCN(C3CCN(c4ncc(C(F)(F)F)cc4C4CC4)CC3)C2)C1` [Compound 44, 6-(1-(3-Cyclopropyl-5-(trifluoromethyl)pyridin-2-yl)piperidin-4-yl)-2-thia-6-azaspiro[3.4]octane 2,2-dioxide]: the concentration giving a half-maximal response (EC50) in experiment [1] was found to be 14 nM; in experiment [2], 4 nM. This compound displayed an inhibitory constant (Ki) in experiment [3] of 9 nM.

Turning to `O=S1(=O)CC2(CCN(C3CCN(c4ncc(F)cc4C(F)(F)F)CC3)C2)C1` [Compound 45, 6-(1-(5-Fluoro-3-(trifluoromethyl)pyridin-2-yl)piperidin-4-yl)-2-thia-6-azaspiro[3.4]octane 2,2-dioxide], the concentration giving a half-maximal response (EC50) in experiment [1] worked out at 49 nM; in experiment [2] it was 13 nM. For the same compound, the inhibition constant (Ki) in experiment [3] turned out to be 17 nM.

With `O=S1(=O)CC2(CCN([C@H]3CC[C@H](c4ncc(C(F)(F)F)cc4Cl)CC3)C2)C1` [Compound 48A, 6-((1r,4r)-4-(3-chloro-5-(trifluoromethyl)pyridin-2-yl)cyclohexyl)-2-thia-6-azaspiro[3.4]octane 2,2-dioxide], the results for the 50% effective concentration (EC50) in experiment [1] and in experiment [2] were 4 nM and 3.7 nM, respectively. Moreover, the Ki in experiment [3] was found to be 31 nM.

Take `Cc1nc(C(F)(F)F)ccc1[C@H]1CC[C@H](N2CCC3(C2)CS(=O)(=O)C3)CC1` [Compound 51A, 6-((1r,4r)-4-(2-Methyl-6-(trifluoromethyl)pyridin-3-yl)cyclohexyl)-2-thia-6-azaspiro[3.4]octane 2,2-dioxide]: the EC50 in experiment [1] worked out at 18 nM; in experiment [2] it was 8.3 nM. This compound also showed an inhibition constant Ki in experiment [3] of 26 nM.

On to `O=S1(=O)CC2(CCN(C3CCN(c4ncc(C(F)(F)F)cc4F)CC3)CC2)C1` [Compound 52, 7-(1-(3-Fluoro-5-(trifluoromethyl)pyridin-2-yl)piperidin-4-yl)-2-thia-7-azaspiro[3.5]nonane 2,2-dioxide], for which the concentration giving a half-maximal response (EC50) in experiment [1] amounted to 7.7 nM; in experiment [2], 4.8 nM. This compound also displayed a Ki in experiment [3] of 18 nM.

For `O=S1(=O)CC2(CCN([C@H]3CC[C@H](c4ncc(C(F)(F)F)cc4F)CC3)C2)C1` [Compound 59, 6-((1r,4r)-4-(3-Fluoro-5-(trifluoromethyl)pyridin-2-yl)cyclohexyl)-2-thia-6-azaspiro[3.4]octane 2,2-dioxide], the results for the 50% effective concentration (EC50) in experiment [1] and in experiment [2] were 82 nM and 13 nM, respectively. Also, the affinity in experiment [3] corresponds to a Ki of 72 nM.

As for `O=S1(=O)CC2(CCN([C@H]3CC[C@H](c4ccnc(C(F)(F)F)c4)CC3)C2)C1` [Compound 60A, 6-((1r,4r)-4-(2-(trifluoromethyl)pyridin-4-yl)cyclohexyl)-2-thia-6-azaspiro[3.4]octane 2,2-dioxide], the EC50 in experiment [1] stood at 21 nM; in experiment [2], 10 nM. In experiment [3], this compound returned a Ki of 133 nM.

As to `O=S1(=O)CC2(CCN([C@H]3CC[C@H](c4cccc(C(F)(F)F)n4)CC3)C2)C1` [Compound 62B, 6-((1r,4r)-4-(6-(trifluoromethyl)pyridin-2-yl)cyclohexyl)-2-thia-6-azaspiro[3.4]octane 2,2-dioxide], the EC50 in experiment [1] turned out to be 13 nM; in experiment [2], 6.4 nM. The same compound yielded a Ki in experiment [3] of 37 nM.

For the compound `CCc1nc(C(F)(F)F)ccc1[C@H]1CC[C@H](N2CCC3(C2)CS(=O)(=O)C3)CC1` [Compound 64A, 6-((1r,4r)-4-(2-ethyl-6-(trifluoromethyl)pyridin-3-yl)cyclohexyl)-2-thia-6-azaspiro[3.4]octane 2,2-dioxide], the EC50 in experiment [1] was 11 nM; in experiment [2], 3.7 nM. In experiment [3], this compound had a Ki of 15 nM.

For the compound `CC(C)c1nc(C(F)(F)F)ccc1[C@H]1CC[C@H](N2CCC3(C2)CS(=O)(=O)C3)CC1` [Compound 65A, 6-((1r,4r)-4-(2-isopropyl-6-(trifluoromethyl)pyridin-3-yl)cyclohexyl)-2-thia-6-azaspiro[3.4]octane 2,2-dioxide], the 50% effective concentration (EC50) was 8.9 nM in experiment [1] and 4.1 nM in experiment [2]. In experiment [3], this compound had an inhibitory constant (Ki) of 14 nM.

Take `O=S1(=O)CC2(CCN([C@H]3CC[C@H](c4ccc(F)c(F)c4)CC3)C2)C1` [Compound 70A, 6-((1r,4r)-4-(3,4-difluorophenyl)cyclohexyl)-2-thia-6-azaspiro[3.4]octane 2,2-dioxide]: the EC50 in experiment [1] was 18 nM; in experiment [2] it was 4 nM. For the same compound, the Ki in experiment [3] turned out to be 6.5 nM.

With `CC(C)(C)n1nc(C(F)(F)F)cc1[C@H]1CC[C@H](N2CCC3(C2)CS(=O)(=O)C3)CC1` [Compound 73, 6-((1r,4r)-4-(1-(tert-Butyl)-3-(trifluoromethyl)-1H-pyrazol-5-yl)cyclohexyl)-2-thia-6-azaspiro[3.4]octane 2,2-dioxide], the 50% effective concentration (EC50) in experiment [1] was determined as 110 nM; in experiment [2], 33 nM. Moreover, in experiment [3], the inhibition constant (Ki) was found to be 21 nM.

Consider `CC(C)(C)n1nc(C2CC2)nc1[C@@H]1CC[C@H](N2CCC3(C2)CS(=O)(=O)C3)C1` [Compound 74A, 6-((1S,3R)-3-(1-(tert-butyl)-3-cyclopropyl-1H-1,2,4-triazol-5-yl)cyclopentyl)-2-thia-6-azaspiro[3.4]octane 2,2-dioxide], for which the concentration giving a half-maximal response (EC50) in experiment [1] is 230 nM; in experiment [2], 31 nM. In experiment [3], affinity was put at a Ki of 154 nM.
